# Earlier results in patent US12234492B2, “Microorganism for fermentative production of 2-phenylethanol from gaseous substrates” (LanzaTech, Inc., priority 2020, dated 2025).
# “And” between values parts separate entries of the source, which are not always exact repeats. Equal entries are not always repeated.
# Experiments:
# Enterococcus faecium = settings: range given jointly for S. aureus and E. faecium; Cone et al. 1990
# Staphylococcus aureus = settings: range given jointly for S. aureus and E. faecium; Cone et al. 1990
structure (smiles),measurement,setting,value
"OCCc1ccccc1 [2-PE, 2-phenylethanol]",growth inhibitory level,Enterococcus faecium,26-43 mM and 3.2-5.3 g/L
same,growth inhibitory level,Staphylococcus aureus,26-43 mM and 3.2-5.3 g/L
